Reference: patent publication US9526705B2, “Lipidated glycosaminoglycan particles and their use in drug and gene delivery for diagnosis and therapy” (Tel-Aviv University Future Technology Development L.P., priority 2001, dated 2016)

Experiments:
[1] = Efficiency of entrapment in gagomers (absorbency, ELISA plate reader); type: physicochemical
Method: The efficiency of entrapment of drugs or other bioactive agents in the gagomers and the kinetics of drug efflux for small molecular weight drugs were determined using absorbency in an ELISA plate reader, with appropriate wavelengths for each given entrapped entity.

[2] = calculated from efflux rate constant, 50 minutes incubation
Description: The independent variable is time. The dependent variable (f) is the percentage of drug released at time=t with respect to the total drug in the system at time t=0.

B16F10 (mouse melanoma) = assay: Tumor metastasis model: lung metastases after i.v. B16F10 cells; type: in vivo, C57BL/6 mice; details: day 21
Method: C57BL/6 female mice were used, which were 12 weeks old at initiation of the experiment. […] The DDS system was LLG in the form of nano particles. The test system was MMC formulated in the novel DDS of the present invention, denoted MMC/DDS.
Group 1 is a control group of healthy mice that were not inoculated with tumor cells.
B16F10 cells were grown in cell culture flasks. […] The injected dose was 5×10^5 cells in 50 μl PBS.
Treatments were given on days 1, 5 and 9. […] All injected volumes were 0.1 ml. The experiment was terminated 21 days post tumor inoculation. The animals were sacrificed, and the lungs were removed, weighed, and fixed in Bouin's solution. Lung weight increase was calculated using the following formula: Lung weight increase(%)=100×(tumor lung weight−normal lung weight)/normal lung weight Surface metastases were counted by an expert using a dissecting microscope.
Quantitative evaluation of metastases in the lungs can be performed by two independent measurements: actual counting of the metastases in excised and properly fixed lungs; and/or measurement of the increase in the weight of the lungs due to the metastases in the animals injected with tumor cells. Both techniques were implemented in the present study.

[3] = system: cell line C26 (mouse colon carcinoma); details: 4 hours exposure, viable cells 24 hours from start, MMC 30 and 50 μg/ml
Description: This is an inherent multidrug resistant (MDR) line originating from mouse colon carcinoma.

[4] = i.v. tail vein, MMC 2 mg/kg
Method: Female BALB/c mice which were 8 weeks old at initiation of the experiment were used. […] The MMC dose was 2 mg/kg body, in both free and DDS formulations and the DDS dose was 1 mg/ml.
(§1) Treatments were given on days 5, 12 and 19. Administration was by injection into the tail vein. All injected volumes were 0.1 ml.
At selected periods post-injection, animals receiving drug-containing formulations were bled, and samples were treated according to established protocols. MMC concentration was determined by HPLC assay.

[5] = system: C-26 cells (mouse colon carcinoma); details: Run 1
Method: Female BALB/c mice which were 8 weeks old at initiation of the experiment were used. The tumor model employed was C-26 cells (originating from mouse colon carcinoma) injected subcutaneously into the right hind footpad. […] The MMC dose was 2 mg/kg body, in both free and DDS formulations and the DDS dose was 1 mg/ml.
To provide the tumor, C-26 cells were grown in cell culture flasks. At day zero, the cells were harvested, washed several times, counted and immediately injected. The injected dose was 8×10^5 cells in 30 μl.
as §1
Parameters measured for Run 1 were retention in circulation, tumor onset, tumor volume, survival. Parameters measured for Run 2 were survival.

[6] = system: MCF7 cells (human breast carcinoma); assay: BSA-FITC entry into cells, confocal microscopy; type: cell-based; details: MCF7, 3.3 mg/ml, 25° C., 60 minutes
Method: Bovine serum albumin tagged with the fluorescent marker FITC (BSA-FITC) in both free form and entrapped in the DDS was used to determine whether DDS can also induce the entry of large macromolecules into cells. The free and the DDS-entrapped BSA-FITC were incubated at 25° C. for 60 minutes with confluent monolayers of MCF7 cells (originating from human breast carcinoma). MCF-7 cells are reported to have two known receptors for hyaluronic acid—ICAM-1 and CD44. The protein/DDS systems were cleaned from the free protein. The free and the entrapped protein were at the same concentration: 3.3 mg/ml. At the end of the incubation the cells were viewed by means of confocal microscopy.

## O=C(N[C@H](CO)[C@H](O)c1ccc([N+](=O)[O-])cc1)C(Cl)Cl [Chloramphenicol]
[1]; Micro-gagomers
  Encapsulation Efficiency (%) By Kinetics: 30.5 ± 1.9%
  Encapsulation Efficiency (%) By Thermodynamics: 39.3 ± 3.9%
[1]; Nano-gagomers
  Encapsulation Efficiency (%) By Kinetics: 47.1 ± 1.5%
  Encapsulation Efficiency (%) By Thermodynamics: 47.4 ± 0.3%

## COc1cccc2c1C(=O)c1c(O)c3c(c(O)c1C2=O)C[C@@](O)(C(=O)CO)C[C@@H]3O[C@H]1C[C@H](N)[C@H](O)[C@H](C)O1 [Doxorubicin, doxorubicin]
[1]; Micro-gagomers
  Encapsulation Efficiency (%) By Kinetics: 50.2 ± 1.2%
  Encapsulation Efficiency (%) By Thermodynamics: 52.4 ± 6.3%
[1]; Nano-gagomers
  Encapsulation Efficiency (%) By Kinetics: 53.6 ± 0.9%
  Encapsulation Efficiency (%) By Thermodynamics: 57.0 ± 3.7%

## CC[n+]1c(-c2ccccc2)c2cc(N)ccc2c2ccc(N)cc21 [EtBr, ethidium bromide]
[2]
  efflux of the entrapped marker in the course of the incubation: ≤ 2%

## CO[C@@]12[C@H](COC(N)=O)C3=C(C(=O)C(C)=C(N)C3=O)N1C[C@@H]1N[C@@H]12 [Mitomycin C, mitomycin C]
B16F10 (mouse melanoma); saline group close to 400%
  increase in lung weight, in words: almost the same
B16F10 (mouse melanoma); lungs, MMC 5 mg/Kg
  number of lung metastases versus saline group: no statistical difference
[3]
  cell death (compared to untreated control): under 15%
[4]
  retention in circulation: disappears very quickly from the circulation
[5]; 3 i.v. doses
  increase in tumor volume / tumor growth rate: not much different than in the saline group
[5]; treatments on days 5, 12 and 19, MMC 2 mg/kg
  day on which tumor was first detected: 7 days

## free BSA-FITC: Bovine serum albumin tagged with the fluorescent marker FITC, free form
[6]
  protein entry into the cells: Some of the protein gained entry into the cell
  protein entry into the nucleus: not inside the nucleus

## α-Interferon
[1]; DDS microparticles, insulin concentration 10 mg/ml
  Encapsulation Efficiency (%): 72.5 ± 3.7%
